Experimental data taken from US20090209460A1, “COMPOSITIONS AND METHODS FOR TREATING OBESITY AND RELATED METABOLIC DISORDERS” (Amylin Pharmaceuticals, Inc., priority 2005, published 2009).
Residues, ends and D or L forms follow the SMILES beside them.

Legend:
[1] = cumulative weight gain in rats with diet induced obesity (rat DIO), subcutaneous pump for seven days; type: in vivo; details: subcutaneously continuously by pump for seven days
Description: Both compounds were administered subcutaneously continuously by pump for seven days at the rate and dosage indicated.

[2] = brush border membrane (BBM) stability assay; type: in vitro ADME, human
Procedure, shortened: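 Peptides digested up to 5 h at 37 °C with human brush border membrane extract (e.g. kidney). Timepoints quenched with 50% ACN, 1% FA, centrifuged, intact peptide quantified by selected-ion mass spectrometry. Expressed as percent stable.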

[3] = test system: over-night fasted rats; assay: food intake in over-night fasted rats, given intraperitoneally; type: in vivo, rat; details: 0.1 to 1.5 mg/kg, 30 and 60 minutes
Description: FN38 in vehicle (10% DMSO in saline) was administered at 0.1 to 1.5 mg/kg. The food intake in grams and as a percent of vehicle are presented in FIGS. 4A and 4B at 30 and 60 minutes, respectively. FIG. 4C presents the same data plotted as grams of food consumed (intake) versus time. The results cannot be attributed to a locomotor effect (data not shown).

[4] = target: DPP-IV (Homo sapiens, UniProt P27487); assay: DPP-IV degradation; type: in vitro ADME; details: isolated DPP-IV peptidase, 25 mM HEPES buffer, 37 degrees C., 10 mM peptide, read-out: intact after contact with DPP-IV
DPP-IV, sequence (P27487 whole entry, species assumed): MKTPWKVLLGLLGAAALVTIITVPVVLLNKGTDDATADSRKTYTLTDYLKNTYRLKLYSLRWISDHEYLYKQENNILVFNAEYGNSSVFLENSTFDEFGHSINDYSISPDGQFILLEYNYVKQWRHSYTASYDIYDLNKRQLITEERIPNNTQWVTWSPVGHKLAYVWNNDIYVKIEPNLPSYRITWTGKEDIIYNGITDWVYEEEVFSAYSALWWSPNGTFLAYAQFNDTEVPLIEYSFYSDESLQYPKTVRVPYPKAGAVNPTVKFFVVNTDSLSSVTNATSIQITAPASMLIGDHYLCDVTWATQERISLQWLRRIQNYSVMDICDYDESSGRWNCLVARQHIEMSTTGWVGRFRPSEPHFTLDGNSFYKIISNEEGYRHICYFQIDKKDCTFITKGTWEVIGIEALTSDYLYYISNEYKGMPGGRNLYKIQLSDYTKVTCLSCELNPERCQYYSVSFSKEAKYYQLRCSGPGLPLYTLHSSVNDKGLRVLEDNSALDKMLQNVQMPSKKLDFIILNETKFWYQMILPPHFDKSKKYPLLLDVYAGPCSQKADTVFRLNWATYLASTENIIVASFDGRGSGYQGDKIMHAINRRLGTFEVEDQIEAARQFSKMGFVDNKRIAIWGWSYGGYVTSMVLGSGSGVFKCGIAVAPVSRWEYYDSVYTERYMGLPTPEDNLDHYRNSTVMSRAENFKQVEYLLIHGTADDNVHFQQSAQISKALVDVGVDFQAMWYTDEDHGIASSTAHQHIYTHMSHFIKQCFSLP
Description: Peptide and peptidase were incubated in 25 mM HEPES buffer at 37 degrees C. at 10 mM peptide.

[5] = body weight and food intake in mice with diet induced obesity (mouse DIO), osmotic pump; type: in vivo; details: mouse DIO
Description: The effect of FN38 and related compounds on body weight and food intake in obese subjects was investigated. Mice having diet induced obesity (DIO) were used. All in vivo tests were performed with peripheral injections of peptide. […] 4-week-old male C57BL/6 mice were group housed with water and a standard pelleted mouse chow diet available ad libitum, except as noted, and were maintained on a on a high fat diet (58% kcal from fat) for 4 weeks prior to the experiment. At the end of fattening period, osmotic pumps were implanted interscapularly under anesthesia. Mice received pumps continuously delivering vehicle (50% DMSO in water or saline) or polypeptide at the dose indicated. Food intake and body weight measurements were obtained weekly.

[6] = test system: NIH/Swiss mice; assay: acute food intake assay, lean overnight-fasted NIH/Swiss mice, intraperitoneal injection; type: in vivo, mouse; details: for Activity (percent decrease in cumulative food intake compared to the vehicle), AUC: intraperitoneal, timepoint 120 min
Procedure, shortened: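 Overnight-fasted lean female NIH/Swiss mice (8-24 weeks, group housed) received vehicle or peptide intraperitoneally at time 0, then pre-weighed standard chow. Food consumed was weighed at 30, 60 and 120 min and expressed as % change versus control.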

remaining at 5 h ([2]; brush border membrane extract (e.g. kidney), percent compound remaining after a 5 hour incubation, human brush border membrane assay, read-out: hBBM): 62%
BBM ([2]; percent of stable, human brush border membrane extracts, five hours, 37° C.): 62%
remaining at 50 min, 10 mM [4]: ~100%
SMILES: CC(C)C[C@H](NC(=O)[C@H](CCCCN)NC(=O)[C@H](CCC(N)=O)NC(=O)[C@@H](NC(=O)[C@H](CCCCN)NC(=O)[C@H](CO)NC(=O)[C@H](Cc1ccc(O)cc1)NC(=O)[C@H](Cc1c[nH]cn1)NC(=O)[C@H](Cc1ccccc1)NC(=O)[C@H](CC(C)C)NC(=O)[C@@H](N)Cc1ccccc1)[C@@H](C)O)C(=O)NCC(=O)N[C@@H](CCCCN)C(=O)N[C@@H](CO)C(=O)N[C@@H](CC(N)=O)C(=O)N[C@H](C(=O)N[C@H](C(=O)N[C@@H](CCC(=O)O)C(=O)N[C@@H](CCC(=O)O)C(=O)N[C@@H](CC(C)C)C(=O)N[C@@H](CCC(N)=O)C(=O)N[C@@H](CO)C(=O)N1CCC[C@H]1C(=O)N[C@@H](Cc1ccccc1)C(=O)N[C@@H](C)C(=O)N[C@@H](CO)C(=O)N[C@@H](CCC(N)=O)C(=O)N[C@@H](CO)C(=O)N[C@@H](CCCNC(=N)N)C(=O)NCC(=O)N[C@@H](Cc1ccc(O)cc1)C(=O)N[C@@H](Cc1ccccc1)C(=O)N[C@@H](CC(C)C)C(=O)N[C@@H](Cc1ccccc1)C(=O)N[C@@H](CCCNC(=N)N)C(=O)N1CCC[C@H]1C(=O)N[C@@H](CCCNC(=N)N)C(=O)N[C@@H](CC(N)=O)C(N)=O)C(C)C)C(C)C [Compound 163661] (H-FLFHYSKTQKLGKSNVVEELQSPFASQSRGYFLFRPRN-NH2; N-terminus assumed)
cumulative weight gained in rat DIO (FIG. 5) [1]: reduction of cumulative weight gained
effect on food intake in over-night fasted rats [3]: inhibiting food intake
d 2 BWt loss ([5]; day 2): 6.5%
d 7 BWt loss ([5]; day 7): 4.3%
reduction of food intake ([6]; administered systemically (i.p. to mice), dose and time not stated): 64%
FI (60′, 200) ([6]; food intake, % change relative to control, 60 min, dose 200): 0%
ED50 at t = 60 ([6]; food intake, t = 60): 4 nmol/kg
Activity (percent decrease in cumulative food intake compared to the vehicle), AUC ([6]; dose 0.3 nmol/kg): 0%
Activity (percent decrease in cumulative food intake compared to the vehicle), AUC ([6]; dose 1 nmol/kg): −23%
Activity (percent decrease in cumulative food intake compared to the vehicle), AUC ([6]; dose 3 nmol/kg): −25%
Activity (percent decrease in cumulative food intake compared to the vehicle), AUC ([6]; dose 10 nmol/kg): −48%
Activity (percent decrease in cumulative food intake compared to the vehicle), AUC ([6]; dose 30 nmol/kg): −58%
Activity (percent decrease in cumulative food intake compared to the vehicle), AUC ([6]; dose 100 nmol/kg): −72%
Activity (percent decrease in cumulative food intake compared to the vehicle), AUC ([6]; dose 300 nmol/kg): −60%
Activity (percent decrease in cumulative food intake compared to the vehicle), AUC ([6]; dose 1000 ug/kg): −46%
Food Intake Inhibition ([6]; mouse assay, dose of 200 mg/kg, measured at 60 minutes): −46%
ED50 for effect on food intake ([6]; over 30 min, i.p., mice): 8.6 nmol/kg
